Laboratory results as given in ChEMBL document CHEMBL5376003, “Structure-Activity Relationship of FL118 Platform Position 7 Versus Position 9-Derived Compounds and Their Mechanism of Action and Antitumor Activity” (J Med Chem, 2023).
Active and inactive are the calls of the source. No cut-off for these calls is given here.

Tests used:
[1] = tested on: HCT-116; assay: Induction of apoptosis in human HCT-116 cells assessed as increase in intracellular ROS level incubated for 48 hrs by DCFH-DA staining based fluorescence microscopy; assay type: functional, cell-based
[2] = tested on: A549; assay: Growth inhibition of human A549 cells incubated for 48 hrs by MTT reagent based ELISA reader analysis; assay type: functional, cell-based; details: A549, 48 h
[3] = tested on: HeLa; assay: Growth inhibition of human HeLa cells incubated for 48 hrs by MTT reagent based ELISA reader analysis; assay type: functional, cell-based
[4] = tested on: HCT-116; assay: Inhibition of cell migration in human HCT-116 cells assessed as intercellular distance at 5 nM by inverted phase-contrast microscopic analysis (reference value: 2.5 +/- 0.7 millimeter); assay type: functional
[5] = tested on: HCT-116; assay: Inhibition of cell migration in human HCT-116 cells assessed as intercellular distance at 5 nM incubated for 24 hrs by inverted phase-contrast microscopic analysis (reference value: 1 +/- 0.2 millimeter); assay type: functional
[6] = tested on: PDX14244; assay: Antitumor activity against human PDX14244 cells xenografted in SCID mouse model assessed as reduction in tumor volume at 2 mg/kg,po administrated once per week for 3 weeks; assay type: functional, organism-based
[7] = tested on: HCT-116; assay: Induction of apoptosis in human HCT-116 cells assessed as upregulation of DDX5 mRNA expression at 50 nM incubated for 24 hrs by RNA analysis; assay type: functional, cell-based
[8] = tested on: HCT-116; assay: Induction of apoptosis in human HCT-116 cells assessed as modulation of TOP1 mRNA expression at 10 to 500 nM incubated for 6 to 48 hrs by RNA analysis; assay type: functional, cell-based; details: dose 10-500 nM, time 6-48 hrs
[9] = tested on: HCT-116; assay: Induction of apoptosis in human HCT-116 cells assessed as modulation of TOP2A mRNA expression at 10 to 500 nM incubated for 6 to 48 hrs by RNA analysis; assay type: functional, cell-based; details: dose 10-500 nM, time 6-48 hrs
[10] = tested on: HCT-116; assay: Induction of apoptosis in human HCT-116 cells assessed as modulation of TOP3A mRNA expression at 10 to 500 nM incubated for 6 to 48 hrs by RNA analysis; assay type: functional, cell-based; details: dose 10-500 nM, time 6-48 hrs
[11] = tested on: HCT-116; assay: Induction of apoptosis in human HCT-116 cells assessed as modulation of DDX6 mRNA expression at 10 to 500 nM incubated for 6 to 48 hrs by RNA analysis; assay type: functional, cell-based; details: dose 10-500 nM, time 6-48 hrs
[12] = tested on: HCT-116; assay: Induction of apoptosis in human HCT-116 cells assessed as modulation of DDX19B mRNA expression at 10 to 500 nM incubated for 6 to 48 hrs by RNA analysis; assay type: functional, cell-based; details: dose 10-500 nM, time 6-48 hrs
[13] = tested on: HCT-116; assay: Induction of apoptosis in human HCT-116 cells assessed as modulation of DDX49 mRNA expression at 10 to 500 nM incubated for 6 to 48 hrs by RNA analysis; assay type: functional, cell-based; details: dose 10-500 nM, time 6-48 hrs
[14] = tested on: HCT-116; assay: Induction of apoptosis in human HCT-116 cells assessed as modulation of DDX55 mRNA expression at 10 to 500 nM incubated for 6 to 48 hrs by RNA analysis; assay type: functional, cell-based; details: dose 10-500 nM, time 6-48 hrs
[15] = tested on: HCT-116; assay: Induction of apoptosis in human HCT-116 cells assessed as upregulation of BIK mRNA expression at 10 to 500 nM incubated for 6 to 48 hrs by RNA analysis; assay type: functional, cell-based; details: dose 10-500 nM, time 6-48 hrs
[16] = tested on: HCT-116; assay: Induction of apoptosis in human HCT-116 cells assessed as downregulation of BCL2 mRNA expression at 10 to 500 nM incubated for 6 to 48 hrs by RNA analysis; assay type: functional, cell-based; details: dose 10-500 nM, time 6-48 hrs
[17] = tested on: HCT-116; assay: Induction of apoptosis in human HCT-116 cells assessed as downregulation of PRIM1 mRNA expression at 10 to 500 nM incubated for 6 to 48 hrs by RNA analysis; assay type: functional, cell-based; details: dose 10-500 nM, time 6-48 hrs
[18] = tested on: HCT-116; assay: Induction of apoptosis in human HCT-116 cells assessed as downregulation of RFC3 mRNA expression at 10 to 500 nM incubated for 6 to 48 hrs by RNA analysis; assay type: functional, cell-based; details: dose 10-500 nM, time 6-48 hrs
[19] = tested on: HCT-116; assay: Induction of apoptosis in human HCT-116 cells assessed as upregulation of ADCY6 mRNA expression at 10 to 500 nM incubated for 6 to 48 hrs by RNA analysis; assay type: functional, cell-based; details: dose 10-500 nM, time 6-48 hrs
[20] = tested on: HCT-116; assay: Induction of apoptosis in human HCT-116 cells assessed as upregulation of POLR2A mRNA expression at 10 to 500 nM incubated for 6 to 48 hrs by RNA analysis; assay type: functional, cell-based; details: dose 10-500 nM, time 6-48 hrs
[21] = tested on: HCT-116; assay: Induction of apoptosis in human HCT-116 cells assessed as upregulation of XPC mRNA expression at 10 to 500 nM incubated for 6 to 48 hrs by RNA analysis; assay type: functional, cell-based; details: dose 10-500 nM, time 6-48 hrs
[22] = tested on: HCT-116; assay: Activation of innate immune response in human HCT-116 cells assessed as upregulation of IL-12B gene expression at 10 to 500 nM incubated for 6 to 48 hrs by RNA analysis; assay type: functional, cell-based; details: dose 10-500 nM, time 6-48 hrs
[23] = tested on: HCT-116; assay: Induction of apoptosis in human HCT-116 cells assessed as downregulation of PPP2CA gene expression at 10 to 500 nM incubated for 6 to 48 hrs by RNA analysis; assay type: functional, cell-based; details: dose 10-500 nM, time 6-48 hrs
[24] = tested on: HCT-116; assay: Induction of apoptosis in human HCT-116 cells assessed as downregulation of NUP133 gene expression at 10 to 500 nM incubated for 6 to 48 hrs by RNA analysis; assay type: functional, cell-based; details: dose 10-500 nM, time 6-48 hrs
[25] = tested on: HCT-116; assay: Induction of apoptosis in human HCT-116 cells assessed as downregulation of NUP160 gene expression at 10 to 500 nM incubated for 6 to 48 hrs by RNA analysis; assay type: functional, cell-based; details: dose 10-500 nM, time 6-48 hrs
[26] = tested on: HCT-116; assay: Induction of apoptosis in human HCT-116 cells assessed as downregulation of NUP205 gene expression at 10 to 500 nM incubated for 6 to 48 hrs by RNA analysis; assay type: functional, cell-based; details: dose 10-500 nM, time 6-48 hrs
[27] = tested on: HCT-116; assay: Induction of apoptosis in human HCT-116 cells assessed as downregulation of SLC25A13 gene expression at 10 to 500 nM incubated for 6 to 48 hrs by RNA analysis; assay type: functional, cell-based; details: dose 10-500 nM, time 6-48 hrs
[28] = tested on: HCT-116; assay: Induction of apoptosis in human HCT-116 cells assessed as downregulation of NME4 gene expression at 10 to 500 nM incubated for 6 to 48 hrs by RNA analysis; assay type: functional, cell-based; details: dose 10-500 nM, time 6-48 hrs
[29] = tested on: HCT-116; assay: Induction of apoptosis in human HCT-116 cells assessed as downregulation of PPAT gene expression at 10 to 500 nM incubated for 6 to 48 hrs by RNA analysis; assay type: functional, cell-based; details: dose 10-500 nM, time 6-48 hrs
[30] = tested on: HCT-116; assay: Induction of apoptosis in human HCT-116 cells assessed as downregulation of CTPS2 gene expression at 10 to 500 nM incubated for 6 to 48 hrs by RNA analysis; assay type: functional, cell-based; details: dose 10-500 nM, time 6-48 hrs
[31] = tested on: HCT-116; assay: Induction of apoptosis in human HCT-116 cells assessed as downregulation of GART gene expression at 10 to 500 nM incubated for 6 to 48 hrs by RNA analysis; assay type: functional, cell-based; details: dose 10-500 nM, time 6-48 hrs
[32] = tested on: HCT-116; assay: Induction of apoptosis in human HCT-116 cells assessed as downregulation of HPRT1 gene expression at 10 to 500 nM incubated for 6 to 48 hrs by RNA analysis; assay type: functional, cell-based; details: dose 10-500 nM, time 6-48 hrs
[33] = tested on: HCT-116; assay: Induction of apoptosis in human HCT-116 cells assessed as downregulation of UMPS gene expression at 10 to 500 nM incubated for 6 to 48 hrs by RNA analysis; assay type: functional, cell-based; details: dose 10-500 nM, time 6-48 hrs
[34] = tested on: HCT-116; assay: Induction of apoptosis in human HCT-116 cells assessed as downregulation of LIPE gene expression at 10 to 500 nM incubated for 6 to 48 hrs by RNA analysis; assay type: functional, cell-based; details: dose 10-500 nM, time 6-48 hrs

In the case of `CCc1ccc(-c2c3c(nc4cc5c(cc24)OCO5)-c2cc4c(c(=O)n2C3)COC(=O)[C@]4(O)CC)cc1`, the Activity [1] is reported as “Dose-Dependent Effect”, the IC50 [2] is reported as 57.2 nM and the IC50 [3] is reported as 37.5 nM. The Activity [4] was 2.6 mm, the Activity [5] was 1.3 mm and the Activity [6] was “Active”. For the same compound, the Activity [7] was “inactive”, the Activity [8] was “Active” and the Activity [9] was “Active”. For the same compound, the Activity [10] was “Active”, the Activity [11] was “Active” and the Activity [12] was “Active”. For the same compound, the Activity [13] was “Active”, the Activity [14] was “Active” and the Activity [15] was “Active”. The Activity [16] was “Active”, the Activity [17] was “Active” and the Activity [18] was “Active”. The Activity [19] was “Active”, the Activity [20] was “Active” and the Activity [21] was “Active”. The Activity [22] was “Active”, the Activity [23] was “Active” and the Activity [24] was “Active”. The Activity [25] was “Active”, the Activity [26] was “Active” and the Activity [27] was “Active”. For the same compound, the Activity [28] was “Active”, the Activity [29] was “Active” and the Activity [30] was “Active”. For the same compound, the Activity [31] was “Active”, the Activity [32] was “Active” and the Activity [33] was “Active”. For the same compound, the Activity [34] was “Active”.
For `CC[C@@]1(O)C(=O)OCc2c1cc1n(c2=O)Cc2cc3cc4c(cc3nc2-1)OCO4`, the Activity [1] was “Dose-Dependent Effect”, the IC50 [2] was 50.7 nM and the IC50 [3] was 32.4 nM. The Activity [4] was 2.6 mm, the Activity [5] was 1.3 mm and the Activity [7] was “inactive”. For the same compound, the Activity [8] was “Active”, the Activity [9] was “Active” and the Activity [10] was “Active”. For the same compound, the Activity [11] was “Active”, the Activity [12] was “Active” and the Activity [13] was “Active”. The Activity [14] was “Active”, the Activity [15] was “Active” and the Activity [16] was “Active”. For the same compound, the Activity [17] was “Active”, the Activity [18] was “Active” and the Activity [19] was “Active”. For the same compound, the Activity [20] was “Active”, the Activity [21] was “Active” and the Activity [22] was “Active”. The Activity [23] was “Active”, the Activity [24] was “Active” and the Activity [25] was “Active”. The Activity [26] was “Active”, the Activity [27] was “Active” and the Activity [28] was “Active”. The Activity [29] was “Active”, the Activity [30] was “Active” and the Activity [31] was “Active”. For the same compound, the Activity [32] was “Active”, the Activity [33] was “Active” and the Activity [34] was “Active”.
